These results are taken from patent publication US7932246B2, “Histone deacetylase inhibitors” (Chroma Therapeutics Ltd., priority 2005, dated 2011).

In test [1] the target is histone deacetylase activity (HeLa nuclear extract). The test can be described thus: HDAC fluorescent activity assay (Biomol, Fluor de Lys substrate). It counts as biochemical. As to conditions: IC50 range. As to the method:
The ability of compounds to inhibit histone deacetylase activities was measured using the commercially available HDAC fluorescent activity assay from Biomol. In brief, the Fluor de Lys™ substrate, a lysine with an epsilon-amino acetylation, is incubated with the source of histone deacetylase activity (HeLa nuclear extract) in the presence or absence of inhibitor. Deacetylation of the substrate sensitises the substrate to Fluor de Lys™ developer, which generates a fluorophore.
Data are expressed as a percentage of the control, measured in the absence of inhibitor, with background signal being subtracted from all samples, as follows:— % activity=[(S^i−B)/(S^o−B)]×100 where S^i is the signal in the presence of substrate, enzyme and inhibitor, S^o is the signal in the presence of substrate, enzyme and the vehicle in which the inhibitor is dissolved, and B is the background signal measured in the absence of enzyme.
Histone deacetylase activity from crude nuclear extract derived from HeLa cells was used for screening. The preparation, purchased from 4C (Seneffe, Belgium), was prepared from HeLa cells harvested whilst in exponential growth phase. The nuclear extract is prepared according to Dignam JD1983 Nucl. Acid. […] The final buffer composition was 20 mM Hepes, 100 mM KCl, 0.2 mM EDTA, 0.5 mM DTT, 0.2 mM PMSF and 20% (v/v) glycerol.

The next test relates to HeLa cells. The test can be described thus: HeLa cell inhibition assay (SRB cell viability). It is filed as cell-based. As to conditions: 72 h, IC50 range. The procedure:
HeLa cells growing in log phase were harvested and seeded at 1000 cells/well (200 μl final volume) into 96-well tissue culture plates. Following 24 h of cell growth cells were treated with compounds (final concentration of 20 μM). Plates were then re-incubated for a further 72 h before a sulphorhodamine B (SRB) cell viability assay was conducted according to Skehan 1990 J Natl Canc Inst 82, 1107-1112.
(§1) Data were expressed as a percentage inhibition of the control, measured in the absence of inhibitor, as follows:— % inhibition=100−[(S^i/S^o)×100] where S^i is the signal in the presence of inhibitor and S^o is the signal in the presence of DMSO.
IC50 values were determined by non-linear regression analysis, after fitting the results of eight data points to the equation for sigmoidal dose response with variable slope (% activity against log concentration of compound), using Graphpad Prism software.
(§2) IC50 results were allocated to one of 3 ranges as follows: […]

Another test concerns U937. The test can be described thus: U937 cell inhibition assay (WST-1 cell viability). It is filed as cell-based. Particulars: U937 cells, 72-96 h, WST-1 assay, IC50 range. As to the method:
(§3) Cancer cell lines (U937 and HUT) growing in log phase were harvested and seeded at 1000-2000 cells/well (100 μl final volume) into 96-well tissue culture plates. Following 24 h of growth cells were treated with compound. Plates were then re-incubated for a further 72-96 h before a WST-1 cell viability assay was conducted according to the suppliers (Roche Applied Science) instructions.
as §1
(§4) Dose response curves were generated from 8 concentrations (top final concentration 10 μM, with 3-fold dilutions), using 6 replicates.
(§5) IC50 values were determined by non-linear regression analysis, after fitting the results to the equation for sigmoidal dose response with variable slope (% activity against log concentration of compound), using Graphpad Prism software.
as §2
In general terms: Formazan colour is commonly taken as a measure of viable cells.

The next test concerns HUT. Description: HUT cell inhibition assay (WST-1 cell viability). It counts as cell-based. As to conditions: HUT cells, 72-96 h, WST-1 assay, IC50 range. The procedure: as §3, §1, §4, §5, §2

Each structure is given as a SMILES string.

In the case of `O=C(NO)c1cnc(N2CC3C(C2)C3NC(=O)c2ccc3occc3c2)nc1` (centres unmarked) [Example 16, N-Hydroxy 2-{6-[(1-benzofuran-5-ylcarbonyl)amino]-3-azabicyclo[3.1.0]hex-3-yl}pyrimidine-5-carboxamide], the IC50 (usually the concentration needed to halve the response being measured) in test [1] is under 100 nM; in the test with HeLa cells (Homo sapiens, HeLa), 331 to 3300 nM; with U937 (Homo sapiens, U-937) it was 331 to 3300 nM; in the test with HUT it was under 330 nM.

`O=C(NO)c1cnc(N2CC3C(C2)C3NC(=O)c2cccs2)nc1` (centres unmarked) [Example 18, N-Hydroxy 2-{6-[(thien-2-ylcarbonyl)amino]-3-azabicyclo[3.1.0]hex-3-yl}pyrimidine-5-carboxamide]: the IC50 in test [1] was under 100 nM; in the test on HeLa cells (Homo sapiens, HeLa), over 3300 nM; in the test with U937 (Homo sapiens, U-937), over 3300 nM; with HUT it was 331 to 3300 nM.

Take `O=C(Cc1ccc(-c2ccccc2)cc1)NC1C2CN(c3ncc(C(=O)NO)cn3)CC21` (centres unmarked) [Example 19, N-Hydroxy 2-[6-(2-biphenyl-4-yl-acetylamino)-3-azabicyclo[3.1.0]hex-3-yl]pyrimidine-5-carboxamide]: the IC50 in test [1] was under 100 nM; in the test with HeLa cells (Homo sapiens, HeLa), under 330 nM; with U937 (Homo sapiens, U-937), under 330 nM; in the test with HUT, under 330 nM.

`O=C(NO)c1cnc(N2CC3C(C2)C3NCc2ccc3ccccc3c2)nc1` (centres unmarked) [Example 20, N-Hydroxy 2-{6-[(2-naphthylmethyl)amino]-3-azabicyclo[3.1.0]hex-3-yl}pyrimidine-5-carboxamide]: the IC50 in test [1] was under 100 nM; in the test with HeLa cells (Homo sapiens, HeLa) it was 331 to 3300 nM; in the test on U937 (Homo sapiens, U-937), under 330 nM; with HUT, under 330 nM.

With `O=C(NO)c1cnc(N2CC3C(C2)C3NCc2ccc(Oc3ccccc3)cc2)nc1` (centres unmarked) [Example 22, N-Hydroxy 2-[6-(4-phenoxybenzylamino)-3-azabicyclo[3.1.0]hex-3-yl]pyrimidine-5-carboxamide], the IC50 in test [1] was under 100 nM; in the test on HeLa cells (Homo sapiens, HeLa) it was under 330 nM; with U937 (Homo sapiens, U-937), under 330 nM; with HUT it was under 330 nM.

`CCCCc1ccc(CNC2C3CN(c4ncc(C(=O)NO)cn4)CC32)cc1` (centres unmarked) [Example 23, N-Hydroxy 2-[6-(4-butylbenzylamino)-3-azabicyclo[3.1.0]hex-3-yl]pyrimidine-5-carboxamide]: the IC50 in test [1] is under 100 nM; with HeLa cells (Homo sapiens, HeLa), 331 to 3300 nM; in the test on U937 (Homo sapiens, U-937), 331 to 3300 nM; in the test on HUT, under 330 nM.

On to `CC(CNC1C2CN(c3ncc(C(=O)NO)cn3)CC21)c1ccccc1` (centres unmarked) [Example 24, N-Hydroxy 2-{6-[(2-phenylpropyl)amino]-3-azabicyclo[3.1.0]hex-3-yl}pyrimidine-5-carboxamide], for which the IC50 was under 100 nM in test [1]; 331 to 3300 nM with HeLa cells (Homo sapiens, HeLa); under 330 nM with U937 (Homo sapiens, U-937); under 330 nM in the test on HUT.

Regarding `COc1ccc(CNC2C3CN(c4ncc(C(=O)NO)cn4)CC32)cc1` (centres unmarked) [Example 26, N-Hydroxy 2-{6-[(4-methoxybenzyl)amino]-3-azabicyclo[3.1.0]hex-3-yl}pyrimidine-5-carboxamide], the IC50 is under 100 nM in test [1], under 330 nM in the test on HeLa cells, under 330 nM in the test on U937 and under 330 nM with HUT.

As to `O=C(NO)c1cnc(N2CC3C(C2)C3NCc2ccc(-c3ccccc3)cc2)nc1` (centres unmarked) [Example 27, N-Hydroxy 2-{6-[(biphenyl-4-ylmethyl)-amino]-3-aza-bicyclo[3.1.0]hex-3-yl}pyrimidine-5-carboxamide], the IC50 in test [1] was under 100 nM; in the test with HeLa cells (Homo sapiens, HeLa), under 330 nM; in the test with U937 (Homo sapiens, U-937) it was under 330 nM; with HUT it was under 330 nM.

With `O=C(NO)c1cnc(N2CC3C(C2)C3NCc2cc(F)cc(F)c2)nc1` (centres unmarked) [Example 28, N-Hydroxy 2-{6-[(3,5-difluorobenzyl)amino]-3-azabicyclo[3.1.0]hex-3-yl}pyrimidine-5-carboxamide], the IC50 is under 100 nM in test [1]; under 330 nM with HeLa cells (Homo sapiens, HeLa); under 330 nM with U937 (Homo sapiens, U-937); under 330 nM in the test with HUT.

Regarding `CC(CCNC1C2CN(c3ncc(C(=O)NO)cn3)CC21)c1ccccc1` (centres unmarked) [Example 29, N-Hydroxy 2-[6-(3-phenylbutylamino)-3-aza-bicyclo[3.1.0]hex-3-yl]pyrimidine-5-carboxamide], the IC50 in test [1] was under 100 nM; in the test on HeLa cells (Homo sapiens, HeLa) it was under 330 nM; in the test on U937 (Homo sapiens, U-937), under 330 nM; with HUT, under 330 nM.

`O=C(NO)c1cnc(N2CC3C(C2)C3NCc2ccc(Cl)cc2)nc1` (centres unmarked) [Example 30, N-Hydroxy 2-{6-[(4-chlorobenzyl)amino]-3-azabicyclo[3.1.0]hex-3-yl}pyrimidine-5-carboxamide]: the IC50 is under 100 nM in test [1]; under 330 nM in the test on HeLa cells (Homo sapiens, HeLa); under 330 nM in the test with U937 (Homo sapiens, U-937); under 330 nM in the test on HUT.

For the molecule `N#Cc1ccc(CNC2C3CN(c4ncc(C(=O)NO)cn4)CC32)cc1` (centres unmarked) [Example 31, N-Hydroxy 2-{6-[(4-cyanobenzyl)amino]-3-azabicyclo[3.1.0]hex-3-yl}pyrimidine-5-carboxamide], the IC50 is under 100 nM in test [1]; 331 to 3300 nM in the test on HeLa cells (Homo sapiens, HeLa); under 330 nM in the test with U937 (Homo sapiens, U-937); under 330 nM in the test on HUT.

As to `O=C(NO)c1cnc(N2CC3C(C2)C3NCc2csc3ccccc23)nc1` (centres unmarked) [Example 32, N-Hydroxy 2-{6-[(1-benzothien-3-ylmethyl)amino]-3-azabicyclo[3.1.0]hex-3-yl}pyrimidine-5-carboxamide], the IC50 is under 100 nM in test [1]; under 330 nM in the test with HeLa cells (Homo sapiens, HeLa); under 330 nM in the test with U937 (Homo sapiens, U-937); under 330 nM in the test on HUT.

In the case of `O=C(NO)c1cnc(N2CC3C(C2)C3NCc2ccccc2)nc1` (centres unmarked) [Example 33, N-Hydroxy 2-[6-(benzylamino)-3-azabicyclo[3.1.0]hex-3-yl]pyrimidine-5-carboxamide], the IC50 in test [1] is under 100 nM; in the test with HeLa cells (Homo sapiens, HeLa), under 330 nM; in the test with U937 (Homo sapiens, U-937), under 330 nM; with HUT, under 330 nM.

On to `O=C(NO)c1cnc(N2CC3C(C2)C3NCc2ccc(OC(F)(F)F)cc2)nc1` (centres unmarked) [Example 34, N-Hydroxy 2-{6-[(4-trifluoromethoxybenzyl)amino]-3-azabicyclo[3.1.0]hex-3-yl}pyrimidine-5-carboxamide], for which the IC50 in test [1] is under 100 nM; in the test with HeLa cells (Homo sapiens, HeLa) it was 331 to 3300 nM; with U937 (Homo sapiens, U-937) it was under 330 nM; in the test with HUT it was under 330 nM.

Take `O=C(NO)c1cnc(N2CC3C(C2)C3NCc2cc(C(F)(F)F)cc(C(F)(F)F)c2)nc1` (centres unmarked) [Example 35, N-Hydroxy 2-{6-[(3,5-bistrifluoromethylbenzyl)amino]-3-azabicyclo[3.1.0]hex-3-yl}pyrimidine-5-carboxamide]: the IC50 in test [1] was under 100 nM; in the test on HeLa cells (Homo sapiens, HeLa), under 330 nM; in the test with U937 (Homo sapiens, U-937) it was under 330 nM; in the test on HUT, under 330 nM.

Take `O=C(NO)c1cnc(N2CC3C(C2)C3NCc2cccc(-c3ccccc3)c2)nc1` (centres unmarked) [Example 37, N-Hydroxy 2-{6-[(biphenyl-3-ylmethyl)-amino]-3-aza-bicyclo[3.1.0]hex-3-yl}pyrimidine-5-carboxamide]: the IC50 was under 100 nM in test [1]; under 330 nM with HeLa cells (Homo sapiens, HeLa); under 330 nM with U937 (Homo sapiens, U-937); under 330 nM in the test on HUT.

For `O=C(NO)c1cnc(N2CC3C(C2)C3NCCc2ccccc2)nc1` (centres unmarked) [Example 38, N-Hydroxy 2-{6-[(2-phenylethyl)amino]-3-azabicyclo[3.1.0]hex-3-yl}pyrimidine-5-carboxamide], the IC50 in test [1] is under 100 nM; in the test with HeLa cells (Homo sapiens, HeLa) it was 331 to 3300 nM; in the test with U937 (Homo sapiens, U-937), 331 to 3300 nM; in the test with HUT it was under 330 nM.

Take `O=C(NO)c1cnc(N2CC3C(C2)C3NCCC(c2ccccc2)c2ccccc2)nc1` (centres unmarked) [Example 39, N-Hydroxy 2-[6-(3,3-diphenylpropylamino)-3-azabicyclo[3.1.0]hex-3-yl]pyrimidine-5-carboxamide]: the IC50 in test [1] is under 100 nM; in the test on HeLa cells (Homo sapiens, HeLa) it was 331 to 3300 nM; with U937 (Homo sapiens, U-937) it was under 330 nM; in the test with HUT it was under 330 nM.
